Assay results taken from patent US20070191324A1, “Methods for treatment or prophylaxis of aldosterone-mediated pathogenic effects in a subject using an epoxy-steroidal aldosterone antagonist” (priority 1999, published 2007).

What was measured:
[1] = tested on: saline-loaded adrenalectomized rats treated with aldosterone; assay: Subcutaneous vs. oral eplerenone in saline-loaded adrenalectomized rats treated with aldosterone (Example A-3); assay type: in vivo
Procedure: Urinary sodium, potassium and water excretion were measured. The results are expressed as the ratio of excreted urinary sodium to potassium (Na/K)±SEM.

[2] = tested on: aldosterone/salt uninephrectomized rats; assay: Myocardial injury in aldosterone/salt uninephrectomized rats (Example A-6); assay type: in vivo, Sprague Dawley rats; settings: eplerenone in chow 100 mg/k/d; aldosterone 0.75 ug/hr, 1% NaCl
Procedure: The rats were then implanted with Alzet mini pump that subcutaneously delivered either aldosterone (0.75 ug/hr) or vehicle. […] Blood pressure was measured by radio telemetry units implanted in abdominal aorta. Rats were sacrificed for examination of the hearts.

saline-drinking SHRSP = assay: Renal pathologic changes in saline-drinking SHRSP, Protocol 1 (Example A-8); assay type: in vivo, rat (SHRSP/A3N)
Procedure: Animals. Studies were conducted in accordance with institutional guidelines using male […] (generations […]-78), n=37, from our local colony. These animals were bred from NIH stock, derived from the […] substrain described originally by Okamoto and coworkers (Okamoto K et al. Circ. […] All animals were housed in a room maintained on a 12:12-h light:dark-cycle and an ambient temperature of 22±1° C. in the Animal Care Facility at New York Medical College. Rats were weaned at 4 weeks of age and allowed free access to Purina Lab Chow 5001 (Ralston Purina, St. Louis, Mo.) and tap water until the initiation of experimental protocols. […] Animals were examined each day for neurologic signs of stroke. Systolic arterial pressure and heart rate were measured each week in awake rats. […] Trunk blood was collected into chilled EDTA tubes following rapid decapitation of the animals between 10:00 am and 12:00 pm. Blood was stored at -20° C. for later measurement of plasma aldosterone levels. The kidneys were rapidly removed, weighed, and then preserved in fixative for later histologic examination. Assays and Analyses. Systolic blood pressure and heart rate of awake animals were measured by tail-cuff plethysmography using a Natsume KN-210 manometer and tachometer (Peninsula Laboratories Inc., Belmont, Calif.). Rats were warmed at 37° C. for 10 min and allowed to rest quietly in a Lucite chamber before measurement of blood pressure. Measurements of urine volume were made gravimetrically. Urinary protein concentration was determined by the sulfosalicylic acid turbidity method. Plasma aldosterone was measured by radioimmunoassay using ^125I-aldosterone as a tracer (Coat-a Count Aldosterone, Diagnostic Products Co., Los Angeles, Calif.). Histology. […] Coronal sections (2-3 μm) were stained with hematoxylin and eosin and examined by light microscopy in a blinded fashion as previously described ([…] et al. […] Glomerular damage was categorized as ischemic or thrombotic. Ischemic lesions were defined as retraction of glomerular capillary tufts with or without appreciable mesangiolysis. […] The presence of casts and tubular (ischemic) retraction and simplification was assessed semiquantitatively. […] Significant effects with respect to treatment and time were determined by two-way analysis of variance. Data with only one grouping variable were analyzed statistically by Student's unpaired t tests. […] Data were analyzed using version 2.01 of the GraphPad Prism statistical software package (GraphPad Software Inc., San Diego, Calif.). […]

[3] = Pharmacokinetics and absorption of [14C]eplerenone in the rat (Example A-9); assay type: in vivo; settings: for Cmax: rat, oral 15 mg/kg
Procedure: Plasma, urine and fecal samples were analyzed for total radioactivity.

[4] = tested on: aortas of cholesterol-fed rabbits; assay: Endothelial function in diet induced atherosclerosis, aortic isometric tension and superoxide (Example A-10); assay type: in vivo, New Zealand white rabbits; settings: 50 mg/kg twice daily by gavage, 6 weeks
Procedure: Methods: New Zealand white rabbits were randomized to four treatment groups. 32 Rabbits were placed on normal (NC) or 1% cholesterol chow (HC) for a duration of 8 weeks. […] Rabbits were euthanized at the end of 8 weeks and the aortas extracted for isometric tension studies and estimation of superoxide (O2^−) generation in vessel segments by lucigenin chemiluminescence (250 μM). Vessels were preconstricted with phenylephrine ([…]) to approximately 50% of peak constriction and dose responses to acetylcholine (Ach) and nitroglycerin (NTG) tested.

[5] = tested on: patients not controlled with ACE-I or ARB; assay: Co-administration of eplerenone with ACE-I or ARB in mild-moderate hypertension (Example D-9); assay type: in vivo, human
Procedure: Patients examined in the study were those who currently were treated with an ACE-I and/or ARB and who had DBP ≧95 mmHg and <110 mmHg and SBP <180 mmHg. Previous antihypertensive therapy was withdrawn except a fixed dose of single ACE-I or ARB.

[6] = addition of eplerenone, 8 weeks

## COC(=O)[C@@H]1CC2=CC(=O)CC[C@]2(C)[C@@]23O[C@@H]2C[C@@]2(C)[C@@H](CC[C@@]24CCC(=O)O4)[C@H]13 [Eplerenone, Pregn-4-ene-7,21-dicarboxylic acid, 9,11-epoxy-17-hydroxy-3-oxo-, γ-lactone, methyl ester, (7α, 11α, 17β)-]
[1]; Table A-3A, aldosterone + antagonist 10 mg/100 g rat
  Mean Na/K: 2.17
[1]; Table A-3A, aldosterone + antagonist 30 mg/100 g rat
  Mean Na/K: 2.98
[1]; Table A-3A, aldosterone + antagonist 100 mg/100 g rat
  Mean Na/K: 3.44
[1]; Table A-3B, aldosterone + antagonist 3 mg/100 g rat
  Mean Na/K: 0.90
[1]; Table A-3B, aldosterone + antagonist 10 mg/100 g rat
  Mean Na/K: 1.34
[1]; Table A-3B, aldosterone + antagonist 30 mg/100 g rat
  Mean Na/K: 1.18
[1]; Table A-3B, aldosterone + antagonist 100 mg/100 g rat
  Mean Na/K: 2.10
[1]; Table A-3B, aldosterone + antagonist 300 mg/100 g rat
  Mean Na/K: 4.79
[1]; Table A-3B, aldosterone + antagonist 1000 mg/100 g rat
  Mean Na/K: 5.70
[1]; antagonism of aldosterone-mediated renal effects
  efficacy of subcutaneous injection versus oral administration: Subcutaneous injection provided better efficacy than oral administration
[2]
  cardiac histopathologic damage: prevents the histopathologic damage
saline-drinking SHRSP; 100 mg/kg/d by gavage, 8.4 to 13.1 weeks of age
  Glomerular damage, Total: only rare instances of ischemic or thrombotic glomeruli
saline-drinking SHRSP; 100 mg/kg/d, 5 weeks
  plasma concentration of aldosterone: 315 ± 35 pg/mL
  signs of stroke: none of eplerenone-treated SHRSP showed evidence of stroke
  tubules with ischemic retraction and simplification: 0.5±0.2%
[3]; oral aqueous solution 15 mg/kg, male rat
  time of peak plasma concentration of total radioactivity: 1.1 h
[3]; plasma, IV 15 mg/kg, male rat
  clearance: 20.3 mL/min/kg
  half-life: 48.2 min
[3]; plasma, female rats
  Cmax: 3540 ng/mL
[3]; plasma, male rats
  Cmax: 1710 ng/mL
[4]; 1% cholesterol chow
  ED50 Ach: 68 nM
  ED50 NTG: 10 nM
[4]; normal chow
  ED50 Ach: 32 nM
  ED50 NTG: 5.7 nM
[5]; addition of eplerenone to ACE-I or ARB
  laboratory abnormalities, K+, adverse events: No significant increase in relevant laboratory abnormalities
[5]; [6]
  SBP & DBP in patients currently treated with ARB: Significant reductions in SBP & DBP
  SBP in patients currently treated with ACE-I: Significant reductions in SBP
[5]; either group
  heart rate: No change in heart rate
